In paper PMC13243568, “Massive barcode-free chemical screenings enable the discovery of bioactive macrocycles with passive membrane permeability” (Nature Communications, 2026):
“Also recorded” adds a separate entry of the source. Starred links: 1 amine or outer side, 2 acyl side, 3 side chain; linkers in the order of their positions; H or OH if unused. Positions of bridges follow the written chain, without caps; N, C: chain ends. Non-standard residues stand in square brackets, D forms with d. Residues, ends and D or L forms follow the SMILES beside them. *: point of attachment. Phenylacetyl(3,4,5-triOMe) = COc1cc(CC(=O)*)cc(OC)c1OC; Biotin = O=C1N[C@H]2[C@H](CS[C@H]2CCCCC(=O)*)N1; Benzoyl(4-SO2NH2) = NS(=O)(=O)c1ccc(C(=O)*)cc1; Tyr(3-Cl) = N[C@@H](Cc1ccc(O)c(Cl)c1)C(=O)O; X1 = O=C([C@H]1CC[C@@H](N[*:1])C1)[*:2]; oXylylene = c1ccc(C[*:2])c(C[*:1])c1; εLys = N[C@@H](CCCCN[*:1])C(=O)[*:2]

Key:
[1] = target: T1, CAIX (Homo sapiens, UniProt Q16790); test: BLI direct binding assay against CAIX; settings: biotinylated hit immobilized on streptavidin sensor, CAIX in solution; curves did not reach saturation; read-out: kinetic KD (BLI)
T1 construct: Anhydrase IX (38-414), His,Avitag (CA9H82E3); His; Avitag (biotinylated); purchased ACROBiosystems CA9H82E3
Procedure: Biolayer interferometry (BLI) assays were performed in 96-well plates (GreinerBio-One, polypropylene, flat-bottom, chimney well) using an Octet R4 system (SATORIUS). Wells were filled with 200 μL of kinetic buffer, compound solution or protein solution, purified compounds. Proteins were dissolved in the appropriate kinetic buffer specific for each target (CAIX: 1× PBS, 0.02% Tween-20, 1 mg/mL BSA [0.1% w/v]; WDR5: 20 mM Tris, 500 mM NaCl, pH 8.0, 0.02% Tween-20, and 1 mg/mL BSA [0.1% w/v]).
Purified biotinylated compounds were dissolved in an appropriate kinetic buffer and immobilized onto the streptavidin biosensor for 60 s. Sensors were then dipped into the kinetic buffer for 60 s, a concentration gradient of protein solution for 300 s and into the kinetic buffer for 300 s. Measurements were carried out at 20 °C.
Table S2: ASMS buffer summary.
B Biotinylated CAIX (1.5 μM) in A Biotinylated WDR5 (1.5 μM) in A […]
μM d-biotin 0.02% Tween-20, 400 μM biotin
D 10% FBS, 1x PBS 20m mM Tris, 500 mM NaCl, pH 8, 10% FBS, E 10 fmol/member library in buffer D 10 fmol/member library in buffer D F 1x PBS 20m mM Tris, 500 mM NaCl, pH 8
G 6M Guanidine HCl, 200 mM phosphate 6M Guanidine HCl, 200 mM phosphate buffer, pH 6.8, 10 mM TCEP HCl buffer, pH 6.8, 10 mM TCEP HCl
Sample preparation after AS: Following the affinity selection, samples were desalted using StageTips. […]

[2] = Parallel artificial membrane permeability assay (PAMPA); format: in vitro ADME
Procedure: The plate system consisted of a 96-well microwell plate (donor wells) and a 96-well insert containing a PVDF membrane coated with tri-layers of phospholipids (acceptor wells). Permeability was measured from the bottom plate (donor wells) to the top insert (acceptor wells). Cyclic peptide or reference compound solutions were prepared at a concentration of 100 μM in 1xPBS buffer (pH 7.4) containing 1% DMSO, and 300 μl of the resulting solutions was placed into the donor wells of the PAMPA plate. Acceptor wells were prepared by adding 200 μl of PBS buffer (pH 7.4) containing 1% DMSO. The insert was stacked onto the donor plate, and the system was covered with a lid to avoid evaporation. […] Additionally, 3:2 dilutions of the 100 μM cyclic peptide stocks were prepared in 1xPBS buffer (pH 7.4) containing 1% DMSO to yield a sample corresponding to the theoretical equilibrium between donor and acceptor wells. The samples were run on the UPLC–HRMS to measure the cyclic peptide concentration representing maximum permeability. […]
Parallel artificial membrane permeability assay (PAMPA):
Permeability measurements
The insert was then stacked onto the donor […]
concentration of permeated peptides. To establish a reference for maximum permeability, 3:2 […]
the theoretical equilibrium between the donor and acceptor chambers. These equilibrium samples […]
Permeability (%) = [PeptideAcceptor ] (4)
P = VD×VA × −ln (1 − [PeptideAcceptor] ) (5) […]

[3] = target: T2, WDR5-MLL PPI (Homo sapiens, UniProt P61964); test: BLI competition assay, displacement of immobilized MLL peptide 16 from WDR5; format: binding; settings: for inhibition of WDR5-MLL interaction, in words: 100 nM inhibitor, MLL immobilized on BLI tips; for displacement of MLL peptide from WDR5: tested at 100 and 50 nM WDR5; for Binding (ratio to control): Figure S11, BLI competition, control = WDR5 without inhibitor
T2 construct: A truncated human WDR5 construct encoding amino acids 22–; SUMO (N); made in house; host or cells: E. coli BL21 (DE3) (WDR5); the peptide was made by chemical synthesis
Procedure: Purified biotinylated competitors were dissolved in the appropriate kinetic buffer and immobilized onto the streptavidin biosensors at 100 nM for 60 s. Sensors were then dipped into the kinetic buffer for 60 s, and the concentration gradient of macrocyclic hit in a constant concentration protein solution for 600 s. Measurements were carried out at 20 °C. […]
was immobilized for 60 sec. at 100 nM. […]
were reincubated and association was measured for 600 sec. […]
Biolayer interferometry (BLI): Biolayer interferometry (BLI) assays were performed in 96 well plates (GreinerBio -One, polypropylene, flat ‐bottom, chimney well) using an Octet R4 system (SATORIUS).
Wells were filled with 200 μL with kinetic buffer, compound solution or protein solution , purifi ed compounds . Proteins were dissolved in the appropriate kinetic buffer specific for each target (CAIX:
Tween -20, 1 mg/mL BSA [0.1% w/v]). […]
Measurements were carried out at 20 °C.
Competition assay: Purified biotinylated competitor were dissolved in appropriate kinetic buffer and immobilized onto the streptavidin biosensors at 100nM for 60s. Sensors were then dipped into kinetic buffer for 60 s and concentration gradient of macrocyclic hit in constant concentration protein solution for 600s. Measurements were carried out at 20 °C.

[4] = tested on: MV-4:11 cells; test: Cell viability, CellTiter-Glo, MV-4:11; format: cell-based; settings: 72 h
Procedure: 5000 HL-60 (DSMZ ACC3), 3000 MV411 (DSMZ ACC554), and 7000 MOLM13 (DSMZ ACC554) cells were plated into an opaque-colored 96-well plate (Greiner Bio-One cat no 655083). […] About 100 μl CellTiter-Glo reagent was added to each well, and the plates were shaken for 5 min at 500 rpm. Luminescent signal was stabilized by incubating the plates for 10 min at RT. Luminescence was measured on the Victor X3 plate reader (Perkin Elmer).
were plated into an opaque colored 96 wells plate (Greiner Bio -one cat no 655083). Cells were plated
no G7570). 100 µl CellTiter-Glo reagent was added to each well and plates were shaken 5 minutes at 500 rpm. Luminescent signal was stabilized by incubating the plates 10 minutes at RT. Luminescence was measured on the Victor X3 plate reader (Perkin Elmer).

[5] = Serum stability assay in 25% human serum; settings: pH 7.4
Procedure: The mixture was vortexed immediately after protein addition. […] After incubating on ice for 1 h, the samples were centrifuged at 10,000×g for 5 min. The supernatant was then injected into the UPLC–HRMS (20 μL) and the AUC of both peptide and IS calculated by analyzing the XIC curve for each exact mass value. For each run and timepoint, the peptide AUC was then normalized to the IS AUC.
vortexed immediately after protein addition. At different time points, a sample was retrieved and the
degradation reaction was quenched by the addition of 20% trichloroacetic acid (w/w) in 1x PBS
After incubating on ice for 1h , the samples were centrifuged at
10,000 rpms for 5 min. The supernatant was then injected into the UPLC -HRMS and the AUC of both
peptide and IS by analyzing the XIC curve for each exact mass value. For each run and timepoint, the peptide AUC was then normalized to the IS AUC . The relative stability values were then plotted using
Half -life times (t 1/2) were
calculated at the intersection of the curve with y=50%.

For `N=C(N)NCCC[C@@H]1NC(=O)[C@H](Cc2ccc(O)c(Cl)c2)NC(=O)[C@H](CCCCN)NC(=O)[C@@H](NC(=O)c2ccc(S(N)(=O)=O)cc2)CSSC[C@@H](C(=O)N[C@@H](CCCCN)C(=O)NCCCC[C@H](N)C(=O)NCCCC[C@H](N)C(=O)N[C@@H](CCCCNC(=O)CCCC[C@@H]2SC[C@@H]3NC(=O)N[C@@H]32)C(N)=O)NC1=O` [Compound 7] ({Benzoyl(4-SO2NH2)}-CK[Tyr(3-Cl)]RCK[εLys][εLys]K(Biotin)-NH2; disulfide 1-5), the Kd [1] was 1 nM.
For `COc1cc(CC(=O)N[C@H]2CSSC[C@@H](C(N)=O)NC(=O)[C@H](Cc3c[nH]c4ccccc34)NC(=O)[C@H](CCCNC(=N)N)NC(=O)[C@H]3CC[C@H](C3)NC2=O)cc(OC)c1OC` [Compound 14] ({Phenylacetyl(3,4,5-triOMe)}-C[X1]RWC-NH2; disulfide 1-5; C-terminus assumed), the “permeability (PAMPA)” value ([2]; PAMPA) was under 1%, the “inhibition of WDR5-MLL interaction, in words” value ([3]; WDR5 50 nM) was “maintains full activity; also recorded: no association was detected; also recorded: comparable inhibitory potency” and the IC50 ([3]; 16 immobilized at 100 nM, WDR5 50 nM, lower detection limit 25 nM, read-out: IC50, inhibition of WDR5-MLL PPI (BLI competition)) was under 25 nM.
For `CC(=O)N[C@H]1CSSC[C@@H](C(N)=O)NC(=O)[C@H](Cc2c[nH]c3ccccc23)NC(=O)[C@H](CCCNC(=N)N)NC(=O)[C@H]2CC[C@H](C2)NC1=O` [Compound 15] (Ac-C[X1]RWC-NH2; disulfide 1-5; C-terminus assumed), the “inhibition of WDR5-MLL interaction, in words” value ([3]; WDR5 50 nM) was “reduced (yet not abolished) activity; also recorded: maintained partial inhibitory activity”.
With `COc1cc(CC(=O)N[C@H]2CSCc3ccccc3CSC[C@@H](C(N)=O)NC(=O)[C@H](Cc3c[nH]c4ccccc34)NC(=O)[C@H](CCCNC(=N)N)NC(=O)[C@H]3CC[C@H](C3)NC2=O)cc(OC)c1OC` [Compound 17] ({Phenylacetyl(3,4,5-triOMe)}-C[X1]RWC-NH2; linker 1-5 via oXylylene; C-terminus assumed) the “inhibition of WDR5-MLL interaction, in words” value ([3]; WDR5 50 nM) was “retained strong inhibition potency”.
With `COc1cc(CC(=O)N[C@H]2CSCc3ccccc3CSCCNC(=O)[C@H](Cc3c[nH]c4ccccc34)NC(=O)[C@H](CCCNC(=N)N)NC(=O)[C@H]3CC[C@H](C3)NC2=O)cc(OC)c1OC` [Compound 17Δ] the “Permeability (%)” value ([2]; PAMPA) was 17.17%, the “permeability (PAMPA)” value ([2]; PAMPA) was 16% and the “inhibition of MV-4:11 cell proliferation, in words” value [4] was “did not inhibit cancer cell proliferation”.
With `COc1cc(CC(=O)N[C@H]2CSCc3cccc(c3)CSCCNC(=O)[C@H](Cc3c[nH]c4ccccc34)NC(=O)[C@H](CCCNC(=N)N)NC(=O)[C@H]3CC[C@H](C3)NC2=O)cc(OC)c1OC` [Compound 18Δ] the “permeability (PAMPA)” value ([2]; PAMPA) was 11%.
For `COc1cc(CC(=O)N[C@H]2CSCc3ccc(cc3)CSCCNC(=O)[C@H](Cc3c[nH]c4ccccc34)NC(=O)[C@H](CCCNC(=N)N)NC(=O)[C@H]3CC[C@H](C3)NC2=O)cc(OC)c1OC` [Compound 19Δ], the “permeability (PAMPA)” value ([2]; PAMPA) was under 5%.
With `COc1cc(CC(=O)N[C@H]2CSCc3ccc(cc3)-c3ccc(cc3)CSCCNC(=O)[C@H](Cc3c[nH]c4ccccc34)NC(=O)[C@H](CCCNC(=N)N)NC(=O)[C@H]3CC[C@H](C3)NC2=O)cc(OC)c1OC` [Compound 20Δ] the “permeability (PAMPA)” value ([2]; PAMPA) was under 5%.
With `N=C(N)NCCC[C@@H]1NC(=O)[C@H]2CC[C@H](C2)NC(=O)[C@@H](NC(=O)Cc2cc(F)c(F)cc2F)CSCc2ccccc2CSCCNC(=O)[C@H](Cc2c[nH]c3ccccc23)NC1=O` [Compound 23] the “permeability (PAMPA)” value ([2]; 100 µM, 18 h incubation, RT) was 45% and the “displacement of MLL peptide from WDR5” value [3] was at least 50%.
In the case of `N=C(N)NCCC[C@@H]1NC(=O)[C@H]2CC[C@H](C2)NC(=O)[C@@H](NC(=O)c2ccc(Cl)s2)CSCc2ccccc2CSCCNC(=O)[C@H](Cc2c[nH]c3ccccc23)NC1=O` [Compound 25], the “permeability (PAMPA)” value ([2]; 100 µM, 18 h incubation, RT) is reported as 51%, the “displacement of MLL peptide from WDR5” value [3] is reported as at least 50% and the remaining at 24 h, 25 μM [5] is reported as over 50%.
With `N=C(N)NCCC[C@@H]1NC(=O)[C@H]2CC[C@H](C2)NC(=O)[C@@H](NC(=O)Cc2ccccc2Br)CSCc2ccccc2CSCCNC(=O)[C@H](Cc2c[nH]c3ccccc23)NC1=O` [Compound 26] the “displacement of MLL peptide from WDR5” value [3] was at least 50%.
With `CCCCCC(C)C(=O)N[C@H]1CSCc2ccccc2CSCCNC(=O)[C@H](Cc2c[nH]c3ccccc23)NC(=O)[C@H](CCCNC(=N)N)NC(=O)[C@H]2CC[C@H](C2)NC1=O` (stereo partly shown) [Compound 27] the “permeability (PAMPA)” value ([2]; 100 µM, 18 h incubation, RT) was 72% and the “displacement of MLL peptide from WDR5” value [3] was at least 50%.
In the case of `N=C(N)NCCC[C@@H]1NC(=O)[C@H]2CC[C@H](C2)NC(=O)[C@@H](NC(=O)CCc2ccc(Br)cc2)CSCc2ccccc2CSCCNC(=O)[C@H](Cc2c[nH]c3ccccc23)NC1=O` [Compound 28], the “displacement of MLL peptide from WDR5” value [3] is reported as at least 50%.
For `COc1cc(CC(=O)N(C)[C@H]2CSCc3ccccc3CSCCNC(=O)[C@H](Cc3c[nH]c4ccccc34)NC(=O)[C@H](CCCNC(=N)N)NC(=O)[C@H]3CC[C@H](C3)NC2=O)cc(OC)c1OC` [s5], the “passive permeability (PAMPA), in words” value ([2]; PAMPA) was “reduced permeability” and the “Binding (ratio to control)” value [3] was 0.37.
In the case of `COc1cc(CC(=O)N[C@H]2CSCc3ccccc3CSCCNC(=O)[C@H](Cc3c[nH]c4ccccc34)N(C)C(=O)[C@H](CCCNC(=N)N)NC(=O)[C@H]3CC[C@H](C3)NC2=O)cc(OC)c1OC` [s7], the “passive permeability (PAMPA), in words” value ([2]; PAMPA) is reported as “reduced permeability” and the “Binding (ratio to control)” value [3] is reported as 0.83.
